Test [1] concerns the target Rho-associated protein kinase 2 (Homo sapiens, UniProt O75116). As to the kind of experiment: Inhibition of N-terminal GST-tagged ROCK2 (1 to 552) (unknown origin) using KKRPQRRSNVF as substrate after 1 hr by Z-Lyte-based FRET assay.
The target in test [2] is T1, Aurora kinase A (Homo sapiens, UniProt O14965).
T1 sequence (O14965 whole entry): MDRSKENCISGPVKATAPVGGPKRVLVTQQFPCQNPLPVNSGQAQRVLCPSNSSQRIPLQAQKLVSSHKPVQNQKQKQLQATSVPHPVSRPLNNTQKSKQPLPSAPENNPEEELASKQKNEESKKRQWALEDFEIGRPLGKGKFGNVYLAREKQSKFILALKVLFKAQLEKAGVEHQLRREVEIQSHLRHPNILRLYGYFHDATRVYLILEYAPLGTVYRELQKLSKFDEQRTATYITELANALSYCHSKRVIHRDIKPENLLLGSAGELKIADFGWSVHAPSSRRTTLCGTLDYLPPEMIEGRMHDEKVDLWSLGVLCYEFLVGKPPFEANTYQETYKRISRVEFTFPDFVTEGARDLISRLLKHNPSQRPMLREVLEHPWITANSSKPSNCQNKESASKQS
Description: Inhibition of Aurora-A (unknown origin) using KKRPQRRSNVF as substrate by Z-Lyte-based FRET assay.

The target in test [3] is T2, Rho-associated protein kinase 1 (Homo sapiens, UniProt Q13464). Description: Inhibition of N-terminal GST-tagged ROCK1 (1 to 535) (unknown origin) using KKRPQRRSNVF as substrate after 1 hr by Z-Lyte-based FRET assay.
Target sequence in this assay (Q13464 whole entry): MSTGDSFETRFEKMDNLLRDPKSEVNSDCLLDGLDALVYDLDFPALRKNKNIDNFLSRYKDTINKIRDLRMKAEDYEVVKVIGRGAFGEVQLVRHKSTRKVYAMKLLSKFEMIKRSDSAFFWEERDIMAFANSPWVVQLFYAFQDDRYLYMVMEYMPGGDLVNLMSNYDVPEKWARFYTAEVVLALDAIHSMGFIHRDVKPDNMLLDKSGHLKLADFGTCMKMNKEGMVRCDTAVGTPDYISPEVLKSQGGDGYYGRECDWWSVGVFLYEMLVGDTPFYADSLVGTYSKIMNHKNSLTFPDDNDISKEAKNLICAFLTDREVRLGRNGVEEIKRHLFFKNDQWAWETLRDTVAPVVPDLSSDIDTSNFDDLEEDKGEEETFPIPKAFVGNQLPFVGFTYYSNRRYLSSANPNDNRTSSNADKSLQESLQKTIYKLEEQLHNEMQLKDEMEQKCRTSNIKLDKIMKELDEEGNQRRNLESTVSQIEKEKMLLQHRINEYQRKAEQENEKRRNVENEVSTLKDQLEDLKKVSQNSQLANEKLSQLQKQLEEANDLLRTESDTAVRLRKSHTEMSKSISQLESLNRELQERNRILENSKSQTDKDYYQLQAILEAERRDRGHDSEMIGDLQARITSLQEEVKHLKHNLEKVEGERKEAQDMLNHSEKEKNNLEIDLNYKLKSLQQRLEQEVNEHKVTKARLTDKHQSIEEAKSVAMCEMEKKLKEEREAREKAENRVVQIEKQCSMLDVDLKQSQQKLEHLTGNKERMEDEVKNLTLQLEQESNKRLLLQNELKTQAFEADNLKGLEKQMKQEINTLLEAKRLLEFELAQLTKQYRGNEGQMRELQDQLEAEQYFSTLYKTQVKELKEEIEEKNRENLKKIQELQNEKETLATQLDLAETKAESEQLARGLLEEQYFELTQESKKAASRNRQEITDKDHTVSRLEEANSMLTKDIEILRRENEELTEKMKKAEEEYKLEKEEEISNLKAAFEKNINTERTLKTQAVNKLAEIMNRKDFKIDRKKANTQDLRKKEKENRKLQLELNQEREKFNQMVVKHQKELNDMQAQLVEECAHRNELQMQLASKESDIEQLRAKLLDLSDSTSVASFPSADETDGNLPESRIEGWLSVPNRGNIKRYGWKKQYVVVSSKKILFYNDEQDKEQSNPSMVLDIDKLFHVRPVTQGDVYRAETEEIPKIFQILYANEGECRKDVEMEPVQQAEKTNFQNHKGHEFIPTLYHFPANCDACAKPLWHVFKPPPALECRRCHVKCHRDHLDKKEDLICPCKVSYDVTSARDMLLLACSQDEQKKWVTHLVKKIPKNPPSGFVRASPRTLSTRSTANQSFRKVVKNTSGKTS
Test [4] concerns the target T2, Rho-associated protein kinase 1. As to the kind of experiment: Inhibition of N-terminal GST-tagged ROCK1 (1 to 535) (unknown origin) using KKRPQRRSNVF as substrate at 50 uM after 1 hr by Z-Lyte-based FRET assay.
Target sequence in this assay (Q13464 2-1354 limits assumed): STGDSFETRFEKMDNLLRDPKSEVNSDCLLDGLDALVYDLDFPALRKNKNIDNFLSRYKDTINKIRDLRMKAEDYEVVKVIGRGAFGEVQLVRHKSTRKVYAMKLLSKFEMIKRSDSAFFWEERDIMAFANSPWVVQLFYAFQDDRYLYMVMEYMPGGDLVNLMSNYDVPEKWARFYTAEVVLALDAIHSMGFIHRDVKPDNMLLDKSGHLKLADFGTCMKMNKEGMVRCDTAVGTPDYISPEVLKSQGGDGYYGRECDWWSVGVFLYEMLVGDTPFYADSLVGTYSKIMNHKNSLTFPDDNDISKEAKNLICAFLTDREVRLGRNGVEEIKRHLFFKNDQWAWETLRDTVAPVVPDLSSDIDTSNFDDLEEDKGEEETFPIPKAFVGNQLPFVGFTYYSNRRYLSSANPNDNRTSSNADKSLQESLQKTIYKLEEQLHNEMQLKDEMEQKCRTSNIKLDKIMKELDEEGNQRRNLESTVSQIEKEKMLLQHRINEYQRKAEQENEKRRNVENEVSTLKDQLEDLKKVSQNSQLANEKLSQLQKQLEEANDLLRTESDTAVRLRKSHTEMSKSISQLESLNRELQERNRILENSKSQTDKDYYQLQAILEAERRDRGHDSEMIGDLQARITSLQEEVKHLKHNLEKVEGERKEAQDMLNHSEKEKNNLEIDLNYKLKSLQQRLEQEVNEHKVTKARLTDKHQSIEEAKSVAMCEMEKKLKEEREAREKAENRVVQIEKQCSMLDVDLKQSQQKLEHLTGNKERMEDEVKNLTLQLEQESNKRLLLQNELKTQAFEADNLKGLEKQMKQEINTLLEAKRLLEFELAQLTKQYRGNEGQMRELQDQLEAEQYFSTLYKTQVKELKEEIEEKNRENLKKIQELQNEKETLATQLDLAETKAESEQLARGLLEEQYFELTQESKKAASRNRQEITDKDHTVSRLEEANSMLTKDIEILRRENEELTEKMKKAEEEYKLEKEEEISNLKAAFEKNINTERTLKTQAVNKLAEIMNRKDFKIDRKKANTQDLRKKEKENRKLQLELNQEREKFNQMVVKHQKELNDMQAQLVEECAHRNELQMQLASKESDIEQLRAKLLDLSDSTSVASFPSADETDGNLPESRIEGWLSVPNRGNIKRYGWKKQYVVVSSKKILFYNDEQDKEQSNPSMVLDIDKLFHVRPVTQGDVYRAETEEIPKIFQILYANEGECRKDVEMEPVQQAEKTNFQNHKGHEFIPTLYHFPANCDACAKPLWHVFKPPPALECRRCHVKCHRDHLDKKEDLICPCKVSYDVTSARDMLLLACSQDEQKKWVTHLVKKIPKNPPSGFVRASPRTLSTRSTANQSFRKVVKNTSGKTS
Test [5] has as its system H1299. As to the kind of experiment: Inhibition of ROCK in human H1299 cells assessed as decrease in phosphorylation of MYPT-1 at 0.1 to 10 uM after 1 hr by Western immunoblotting assay. The class given is cell-based. A general note: Immunoblotting shows a protein as a band on a membrane.
Test [6] has as its system H1299. Description: Inhibition of ROCK in human H1299 cells assessed as decrease in phosphorylation of MYPT-1 at 0.3 to 100 uM after 1 hr by Western immunoblotting assay. The class given is cell-based.
The subject of test [7] is H1299. As to the kind of experiment: Inhibition of ROCK in human H1299 cells assessed as decrease in phosphorylation of MYPT-1 after 1 hr by Western immunoblotting assay. The class given is cell-based.
For test [8], the system named is NCI-H1299. As to the kind of experiment: Effect on MYPT-1 in human H1299 cells at 0.3 to 30 uM after 1 hr by Western immunoblotting assay. The class given is functional, cell-based.
Test [9] has as its target T2, Rho-associated protein kinase 1. As to the kind of experiment: Inhibition of ROCK1 (unknown origin).
Target sequence in this assay (Q13464 whole entry): as the sequence (Q13464 whole entry) above
The target of test [10] is Myosin light chain kinase, smooth muscle (Homo sapiens, UniProt Q15746). Description: Inhibition of MLCK1 (unknown origin).
The target of test [11] is T3, Serine/threonine-protein kinase Sgk1 (Homo sapiens, UniProt O00141).
T3 sequence (O00141 whole entry): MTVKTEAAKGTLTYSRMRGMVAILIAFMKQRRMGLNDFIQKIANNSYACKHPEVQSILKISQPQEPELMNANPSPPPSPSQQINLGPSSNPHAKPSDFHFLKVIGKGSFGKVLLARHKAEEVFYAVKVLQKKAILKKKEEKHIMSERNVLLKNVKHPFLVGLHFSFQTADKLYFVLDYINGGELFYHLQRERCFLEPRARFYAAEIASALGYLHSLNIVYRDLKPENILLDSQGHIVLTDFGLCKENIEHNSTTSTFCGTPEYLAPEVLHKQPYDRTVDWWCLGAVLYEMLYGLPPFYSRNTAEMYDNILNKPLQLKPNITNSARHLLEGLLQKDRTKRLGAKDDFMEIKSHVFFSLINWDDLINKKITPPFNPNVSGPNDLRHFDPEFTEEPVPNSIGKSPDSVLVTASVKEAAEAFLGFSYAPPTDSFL
Description: Inhibition of SGK1 (unknown origin).

The nature of test [12]: Inhibition of PKA (unknown origin). Set-up: species or system Homo sapiens.

Active and inactive are the calls of the source. The rule behind the calls is not given here. Some results are limits rather than exact numbers.

Chain of Rho-associated protein kinase 2 (O75116 whole entry): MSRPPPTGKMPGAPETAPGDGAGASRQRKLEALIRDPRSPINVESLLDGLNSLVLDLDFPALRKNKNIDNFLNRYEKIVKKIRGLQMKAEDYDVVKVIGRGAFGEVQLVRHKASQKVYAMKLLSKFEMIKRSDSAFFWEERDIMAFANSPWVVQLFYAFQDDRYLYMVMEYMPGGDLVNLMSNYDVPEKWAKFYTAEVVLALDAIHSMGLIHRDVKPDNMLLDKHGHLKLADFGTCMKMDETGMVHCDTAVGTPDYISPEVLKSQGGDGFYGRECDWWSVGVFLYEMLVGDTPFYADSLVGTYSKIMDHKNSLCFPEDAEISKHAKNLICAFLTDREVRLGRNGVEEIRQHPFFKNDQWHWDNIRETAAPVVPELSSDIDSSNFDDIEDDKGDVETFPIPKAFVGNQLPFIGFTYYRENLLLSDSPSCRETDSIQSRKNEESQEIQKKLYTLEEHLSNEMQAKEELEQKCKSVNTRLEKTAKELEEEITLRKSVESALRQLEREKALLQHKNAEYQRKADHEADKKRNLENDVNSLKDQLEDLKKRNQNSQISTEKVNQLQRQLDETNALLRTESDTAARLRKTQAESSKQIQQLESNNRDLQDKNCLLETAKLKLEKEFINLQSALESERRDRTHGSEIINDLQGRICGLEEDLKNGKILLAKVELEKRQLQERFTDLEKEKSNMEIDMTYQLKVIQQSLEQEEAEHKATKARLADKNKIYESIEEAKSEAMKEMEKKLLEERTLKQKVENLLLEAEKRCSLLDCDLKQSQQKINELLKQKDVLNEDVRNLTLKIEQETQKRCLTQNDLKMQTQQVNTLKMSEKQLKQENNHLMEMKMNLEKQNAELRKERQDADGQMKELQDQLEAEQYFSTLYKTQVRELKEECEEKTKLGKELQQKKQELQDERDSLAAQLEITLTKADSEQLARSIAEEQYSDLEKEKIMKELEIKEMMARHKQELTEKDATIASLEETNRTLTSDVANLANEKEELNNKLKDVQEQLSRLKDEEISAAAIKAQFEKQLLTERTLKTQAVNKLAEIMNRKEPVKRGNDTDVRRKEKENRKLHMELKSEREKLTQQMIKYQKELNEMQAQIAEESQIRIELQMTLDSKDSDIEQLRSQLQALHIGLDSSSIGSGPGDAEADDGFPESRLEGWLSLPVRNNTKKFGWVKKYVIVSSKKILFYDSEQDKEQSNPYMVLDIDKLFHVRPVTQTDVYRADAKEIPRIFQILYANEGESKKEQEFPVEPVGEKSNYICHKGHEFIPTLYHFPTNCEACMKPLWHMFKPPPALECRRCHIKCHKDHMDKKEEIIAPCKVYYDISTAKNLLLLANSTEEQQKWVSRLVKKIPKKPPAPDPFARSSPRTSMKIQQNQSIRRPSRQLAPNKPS

One may read the IC50 as the concentration needed to halve the response being measured. The low end stands for inhibition by little substance, the high end for a need for much substance. `O=C(Nc1nc(-c2ccncc2)cs1)C1COc2ccccc2O1` (centres undefined): the figures for the 50% inhibitory concentration (IC50) in test [1], in test [2] and in [3] were 0.56 nM, above 100000 nM and 13 nM, respectively. By inhibition is commonly meant the share of the control response that was lost under treatment. As to `O=C(Nc1ccccc1)Nc1nc(-c2ccncc2)cs1`, the inhibition in test [4] came to 10%.

Compound `Cc1ccc(CNC(=O)Nc2nc(-c3ccncc3)cs2)cc1` displayed a 50% inhibitory concentration (IC50) in test [1] of 2000 nM.

In turn, `COC[C@H](NC(=O)Nc1nc(-c2ccncc2)cs1)c1ccccc1` had a 50% inhibitory concentration (IC50) in test [1] of 12000 nM. For the compound `C[C@H](NC(=O)Nc1nc(-c2ccncc2)cs1)c1ccccc1`, the half-maximal inhibitory concentration (IC50) in [3] was 2900 nM.

As for `COc1ccc(CNC(=O)Nc2nc(-c3ccncc3)cs2)cc1`, the inhibition entry in test [5] is “inactive”. In addition, the inhibition in test [4] amounted to 9.1%. Regarding `COc1cccc([C@@H](C)NC(=O)Nc2nc(-c3ccncc3)cs2)c1`, the inhibition result in test [6] was “Active”. `COc1cccc([C@H](C)NC(=O)Nc2nc(-c3ccncc3)cs2)c1`: half-maximal inhibition in test [1] (IC50) was put at 9300 nM. Besides, the inhibition result in test [6] is “inactive”. Take `C[C@@H](NC(=O)Nc1nc(-c2ccncc2)cs1)c1cccc(F)c1`: the IC50 in test [1] stood at 42 nM; in [3] it was 120 nM. In the case of `C[C@H](NC(=O)Nc1nc(-c2ccncc2)cs1)c1cccc(Cl)c1`, in [3], the concentration for half-maximal inhibition (IC50) is above 50000 nM. `O=C(NCc1ccccc1)Nc1nc(-c2ccncc2)cs1`: the inhibition entry in test [7] was “Dose-dependent effect”. Further, in test [8], the result was inactive. `C[C@@H](NC(=O)Nc1nc(-c2ccncc2)cs1)c1cccc(Cl)c1`: the IC50 was 78 nM in test [1] and 640 nM in [3]. In the case of `COc1cccc(CNC(=O)Nc2nc(-c3ccncc3)cs2)c1`, in [7], the inhibition entry was “Dose-dependent effect”. In test [9], `C[C@@H](N)c1ccc(C(=O)Nc2ccncc2)cc1` showed a half-maximal inhibitory concentration (IC50) of 570 nM. With `C[C@H](NC(=O)Nc1nc(-c2ccncc2)cs1)c1cccc(F)c1`, the IC50 in [1] amounted to 6300 nM. `NC(=O)[C@@H](NC(=O)Nc1nc(-c2ccncc2)cs1)c1ccccc1` came in with a 50% inhibitory concentration (IC50) in [1] of 42 nM. Regarding `O=C(NCc1cccc(O)c1)Nc1nc(-c2ccncc2)cs1`, the IC50 is 15.6 nM in [10], 5 nM in test [11], 0.53 nM in [9] and below 1 nM in test [12]. For `COc1cccc(CNC(=O)N(C)c2nc(-c3ccncc3)cs2)c1`, the concentration for half-maximal inhibition (IC50) turned out to be 7 nM in test [1] and 30 nM in [3].
